The results in this text go back to ChEMBL document CHEMBL1201862, “PubChem BioAssay data set” (2004).

Holding throughout (assay): NCI anticancer screen, dose series, 48 h
Test [1] deals with ACHN.
Test [2] relates to CAKI-1.
The subject of test [3] is CCRF-CEM.
Test [4] has as its system COLO 205.
The subject of test [5] is DU-145.
Test [6] has as its system EKVX.
In test [7] the test system is HT-29.
Test [8] has as its system LOX IMVI.
Test [9] deals with M14.
The subject of test [10] is Malme-3M.
Test [11] has as its system NCI-H23.
For test [12], the system named is OVCAR-8.
In test [13] the test system is RPMI-8226.
The subject of test [14] is SF-268.
In test [15] the test system is SK-MEL-2.
Test [16] concerns SK-MEL-5.
Test [17] deals with SNB-19.
Test [18] concerns HCC 2998.
The subject of test [19] is MCF7.
Test [20] concerns SR.

Each structure is given as a SMILES string.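 How tested: cells in 96-well plates exposed to compound for 48 hours at five concentrations. GI50 is the concentration that inhibits growth by half.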 Active and inactive are the calls of the source. No stated cut-off is given here; in the data, active = GI50 up to about 1.1 µM and inactive = higher. Where a SMILES comes first, the peptide text is derived from it. The star is where a group is joined. Boc = CC(C)(C)OC(=O)* Some results are limits rather than exact numbers.

Consider `Cn1/c(=N\S(=O)(=O)c2ccccc2)n(S(=O)(=O)c2ccccc2)c2ccccc21`, for which the GI50 in [1] is 34.5 µM (inactive); in test [2], > 100 µM (inactive); in [3] it was 24.7 µM (inactive); in test [4], 32.9 µM (inactive); in test [5] it was 72.8 µM (inactive); in test [6] it was 63.5 µM (inactive). Further, the GI50 in test [7] was 35.6 µM (inactive); in [8] it was > 100 µM (inactive); in test [9], 53.7 µM (inactive); in [10] it was 47.6 µM (inactive); in test [11], 61 µM (inactive); in [12], 56.1 µM (inactive). For the same compound, the GI50 in test [13] is 48.1 µM (inactive); in test [14], 54.1 µM (inactive); in test [15], 34.4 µM (inactive); in [16], 35.7 µM (inactive); in test [17] it was 89.3 µM (inactive).

On to `COC(=O)C(Cc1c[nH]c2ccccc12)NC(=O)C(Cc1c[nH]c2ccccc12)NC(=O)C(Cc1c[nH]c2ccccc12)NC(=O)OC(C)(C)C` (stereo not drawn) (Boc-Trp-Trp-Trp-OMe; configuration not given here), for which the GI50 in [1] was 18.1 µM (inactive); in test [4], 20.4 µM (inactive); in [6], 57 µM (inactive); in [18], 18.6 µM (inactive); in test [7], 19.2 µM (inactive); in [9], 37.3 µM (inactive). For the same compound, the GI50 is > 10 µM (inactive) in test [19]; > 100 µM (inactive) in [10]; 16.2 µM (inactive) in [11]; 20.7 µM (inactive) in [12]; 27.2 µM (inactive) in test [13]; 17.3 µM (inactive) in test [15]. The GI50 in test [16] was 47.9 µM (inactive); in test [17] it was 18.9 µM (inactive).

Consider `O=C(Nc1nc2ccc([N+](=O)[O-])cc2s1)c1cc([N+](=O)[O-])ccc1Cl`, for which the GI50 in test [1] was 3.2 µM (inactive); in [2] it was 4.51 µM (inactive); in test [4], 1.68 µM (inactive); in test [5], 3.75 µM (inactive); in [6], 2.81 µM (inactive); in test [7] it was 2.48 µM (inactive). Moreover, the GI50 in test [8] was 2.05 µM (inactive); in [10] it was 3.01 µM (inactive); in [11], 2.3 µM (inactive); in [12] it was 2.85 µM (inactive); in test [13], 0.989 µM (active); in test [14], 3.41 µM (inactive). Besides, in test [16], the GI50 is 1.41 µM (inactive).

On to `CCOc1ccc(/N=N/c2ccc(-c3ccc(/N=N/c4c(O)ccc5cc(S(=O)(=O)O)cc(S(=O)(=O)O)c45)cc3)cc2)cc1`, for which the GI50 in [1], in [2], in test [3], in test [4], in [6] and in test [18] was > 100 µM (inactive) in each case. Further, the GI50 in [7] is > 100 µM (inactive); in [9] it was > 100 µM (inactive); in test [19] it was > 100 µM (inactive); in test [10], 18.5 µM (inactive); in [11] it was > 100 µM (inactive); in test [12], > 100 µM (inactive). The GI50 in test [13] is > 100 µM (inactive); in [14], > 100 µM (inactive); in [15] it was > 100 µM (inactive); in test [16], > 100 µM (inactive); in test [17], > 100 µM (inactive); in test [20] it was 66.2 µM (inactive).

For the compound `NC(CCc1nc(-c2ccc(Cl)cc2)cs1)C(=O)O` (stereo unspecified), the GI50 in test [1], in [2], in test [3], in [4], in test [6] and in [18] was > 100 µM (inactive) in each case. Moreover, the GI50 in test [7], in test [8], in test [9], in test [10], in test [11] and in test [12] was > 100 µM (inactive) throughout. The GI50 in test [13], in [14], in test [15], in [16], in test [17] and in test [20] was > 100 µM (inactive) in each case.

Regarding `Cn1c(=O)c2c(ncn2CCNC(CO)C(O)c2ccc([N+](=O)[O-])cc2)n(C)c1=O` (stereo unspecified), the GI50 in test [1] was > 100 µM (inactive); in [2], > 100 µM (inactive); in [3] it was > 100 µM (inactive); in test [4], > 100 µM (inactive); in test [6], > 100 µM (inactive); in test [18] it was > 10 µM (inactive). Also, the GI50 in test [7], in test [8], in test [9], in test [19], in test [10] and in test [11] was > 100 µM (inactive) throughout. In addition, the GI50 in test [12], in [13], in test [14], in test [15], in test [16] and in test [17] was > 100 µM (inactive) each time. Also, the GI50 in [20] is > 100 µM (inactive).

Take `CCc1n[nH]c(=O)n1NC(=O)CCCC(=O)O`: the GI50 in test [1], in test [2], in [3], in [4], in [6] and in test [18] was > 100 µM (inactive) each time. Besides, the GI50 in [7], in test [8], in test [9], in [19], in [10] and in [11] was > 100 µM (inactive) throughout. Besides, the GI50 in [12], in test [13], in test [14], in [15], in test [16] and in [17] was > 100 µM (inactive) each time. The GI50 in test [20] was > 100 µM (inactive).

In the case of `CCN(C(=N)C#N)c1ccccc1`, the GI50 in test [1] is > 100 µM (inactive); in test [2] it was > 100 µM (inactive); in test [3] it was > 54.5 µM (inactive); in [4], > 95.3 µM (inactive); in test [6], > 100 µM (inactive); in test [18] it was > 100 µM (inactive). Moreover, the GI50 in [7] was > 89.7 µM (inactive); in [8], 47.2 µM (inactive); in [9], > 100 µM (inactive); in test [10], > 100 µM (inactive); in test [11] it was > 100 µM (inactive); in test [12], > 100 µM (inactive). The GI50 in test [13], in [14], in test [15], in [16], in test [17] and in test [20] was > 100 µM (inactive) each time.
